The values that follow come from patent US6432671B1 (priority 1996, dated 2002).

In the assay the test system is tryparedoxin I. It is filed as biochemical, Crithidia fasciculata.

Take `CCN1C(=O)C=CC1=O` [NEM, N-ethylmaleimide]: the “residual activity [%]” value stood at 24 ± 5%.
